Source: patent US8563558B2, “Substituted pyridine urea compounds” (Confluence Life Sciences, Inc., priority 2010, dated 2013)
“And” between values parts separate entries of the source, which are not always exact repeats. Equal entries are not always repeated.

Tests used:
p38α/MK2 = p38α/MK2 (Homo sapiens, UniProt Q16539); test: p38α/MK2 cascade assay (phosphorylation of Hsp27 peptide, Caliper LabChip 3000); format: biochemical; conditions: Hsp27 peptide 1 μM, MgATP 10 μM, 30 minutes, room temperature, two values given, read-out: p38/MK2 IC50
Chain of p38α/MK2 (Q16539 whole entry): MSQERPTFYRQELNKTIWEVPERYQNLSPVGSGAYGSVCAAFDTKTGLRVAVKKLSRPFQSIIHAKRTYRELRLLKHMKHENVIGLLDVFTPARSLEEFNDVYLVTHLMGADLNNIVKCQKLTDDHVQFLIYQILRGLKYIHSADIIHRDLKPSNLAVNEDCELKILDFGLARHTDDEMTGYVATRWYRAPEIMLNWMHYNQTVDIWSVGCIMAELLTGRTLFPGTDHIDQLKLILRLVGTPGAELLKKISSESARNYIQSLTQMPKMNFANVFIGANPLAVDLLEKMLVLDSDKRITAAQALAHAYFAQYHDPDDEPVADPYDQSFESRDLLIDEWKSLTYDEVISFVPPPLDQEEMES
Chain of p38α/MK2 (P49137 whole entry partner): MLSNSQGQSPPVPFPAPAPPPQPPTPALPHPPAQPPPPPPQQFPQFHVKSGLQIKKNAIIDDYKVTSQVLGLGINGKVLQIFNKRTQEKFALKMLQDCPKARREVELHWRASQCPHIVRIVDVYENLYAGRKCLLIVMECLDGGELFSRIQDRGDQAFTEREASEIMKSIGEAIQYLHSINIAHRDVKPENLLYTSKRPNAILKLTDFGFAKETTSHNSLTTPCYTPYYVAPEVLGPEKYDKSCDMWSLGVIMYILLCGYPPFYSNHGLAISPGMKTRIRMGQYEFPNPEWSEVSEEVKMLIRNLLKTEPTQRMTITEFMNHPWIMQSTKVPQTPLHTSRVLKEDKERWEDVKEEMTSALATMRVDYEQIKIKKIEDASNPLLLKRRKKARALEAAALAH
Procedure: (§1) P38 inhibitory potency and P38/MK2 substrate selectivity: The novel, MK2 substrate-selective inhibitory mechanism of compounds is evaluated in enzyme assays comparing inhibitor potency in blocking p38/MK2 versus p38/PRAK induced phosphorylation of an HSP-27 derived peptide substrate. The ability of compounds to inhibit activated phospho-p38α is evaluated using a p38α/MK2 and a p38α/PRAK cascade assay format. The kinase activity of p38α is determined by its ability to phosphorylate GST-MK2 or GST-PRAK. Activation of MK2 or PRAK by p38α is quantitated by measuring the phosphorylation of a fluorescently-labeled, MK2 specific peptide substrate, Hsp27 peptide (FITC-KKKALSRQLSVAA). The phosphorylation of the Hsp27 peptide is quantified using the Caliper LabChip 3000. Kinase reactions are carried out in a 384-well plate (Matrical, MP101-1-PP) in 20 mM HEPES pH 7.5, 10 mM MgCl2, 0.0005% Tween-20, 0.01% BSA, 1 mM DTT, and 2% DMSO. The inhibitor concentration is varied between 0.02-30,000 nM, while the Hsp27 peptide substrate and MgATP are held constant at 1 μM and 10 μM, respectively. Activated p38α is added to a final concentration of […] for reactions with nonphosphorylated 1 nM His6-MK2 in the cascade reaction. For the p38α/PRAK cascade, unactivated GST-PRAK is held constant at 1 nM while p38α is added in to a final concentration of […]. Kinase reactions are incubated at room temperature and quenched after 30 minutes by the addition of stop buffer (180 mM HEPES, 30 mM EDTA, and 0.2% Coating Reagent-3). Under these conditions, approximately 20% of the substrate Hsp27 peptide is phosphorylated. Reactions are initiated by the addition of activated p38α except for preincubation experiments, where reactions are initiated by the addition of Hsp27 peptide and MgATP. Preincubation of p38α with inhibitor or p38α with unactivated His6-MK2 or unactivated GST-PRAK and inhibitor are performed at 2× final assay concentrations at room temperature 240 minutes prior to adding ATP and Hsp27 peptide to initiate catalysis. The p38α compound inhibitory potency is quantitated from dose-response IC50 values or Ki values from p38α/MK2 cascade assays while the substrate selectivity is calculated as a ratio of p38α/PRAK:p38α/MK2 IC50 values. Species compounds of Formula I, described hereinabove, evaluated in this assay, are expected to provide a therapeutic benefit in the treatment of p38 kinase mediated diseases, such as autoimmune diseases and lymphoma.

p38α/PRAK = p38α/PRAK (Homo sapiens, UniProt Q16539); test: p38α/PRAK cascade assay (phosphorylation of Hsp27 peptide, Caliper LabChip 3000); format: biochemical; conditions: Hsp27 peptide 1 μM, MgATP 10 μM, 30 minutes, room temperature, two values given, read-out: p38/PRAK IC50
Chain of p38α/PRAK (Q16539 whole entry): as the sequence (Q16539 whole entry) above
Procedure: as §1

| IC50 (p38α/MK2) | IC50 (p38α/PRAK) | SMILES |
| --- | --- | --- |
| 0.34 µM and 0.36 µM | 1.9 µM and 2.6 µM | Cc1ccc(-c2ccnc(C(C)(C)O)n2)cc1N(C(N)=O)c1cccc(-c2ccc(F)cc2F)n1 [Example 5, 1-(6-(2,4-difluorophenyl)pyridin-2-yl)-1-(5-(2-(2-hydroxypropan-2-yl)pyrimidin-4-yl)-2-methylphenyl)urea] |
| 0.55 µM and 0.5 µM | > 10 µM | Cc1ccc(-c2ccnc(C(C)(C)C)n2)cc1N(C(N)=O)c1ccc(C(N)=O)c(-c2ccc(F)cc2F)n1 [Example 17, 6-(1-(5-(2-(tert-butyl)pyrimidin-4-yl)-2-methylphenyl)ureido)-2-(2,4-difluorophenyl)nicotinamide] |
| 1.27 µM and 1.53 µM | > 50 µM | Cc1ccc(-c2ccnc(C(C)(C)C)n2)cc1N(C(N)=O)c1cccc(-c2ccc(F)cc2F)n1 [Example 31, 1-(5-(2-(tert-butyl)pyrimidin-4-yl)-2-methylphenyl)-1-(6-(2,4-difluorophenyl)pyridin-2-yl)urea] |
| 0.838 µM and 0.955 µM | > 10 µM | COC(=O)c1ccc(N(C(N)=O)c2cc(-c3ccnc(C(C)(C)C)n3)ccc2C)nc1-c1ccc(F)cc1F [Example 32, methyl 6-(1-(5-(2-(tert-butyl)pyrimidin-4-yl)-2-methylphenyl)ureido)-2-(2,4-difluorophenyl)nicotinate] |
| 9.5 µM and 12 µM | > 50 µM | Cc1nc(-c2cccc(N(C(N)=O)c3cc(-c4ccnc(C(C)(C)C)n4)ccc3C)n2)cs1 [Example 33, 1-(5-(2-(tert-butyl)pyrimidin-4-yl)-2-methylphenyl)-1-(6-(2-methylthiazol-4-yl)pyridin-2-yl)urea] |
